Test results: patent publication US9198420B2, “Rodenticidal norbormide analogues” (priority 2012, dated 2015)
Read-outs that look alike come from different tables or passages of the source. Marks after values point to notes of the source that are not given here.

Legend:
[1] = tested on: rat caudal artery; assay: Rat caudal artery ring contractile force (vasoconstrictory activity); set-up: species or system rat (male Wistar)
Procedure, shortened: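 Endothelium-denuded caudal artery rings from male Wistar rats were held at 2 g resting tension in Tyrode solution (37° C, pH 7.35, 95% O2/CO2) and isometric force was recorded. Compounds were tested at 50 μM, with contraction expressed as percent of the 90 mM KCl response.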

[2] = tested on: Sprague Dawley rats; assay: In vivo lethality, oral gavage; set-up: species or system rat (Sprague Dawley); details: rat; for Time to Death (min) / Onset of Symptoms: mean time; for Onset of Symptoms: visual signs of distress consistent with NRB-like symptoms
Procedure, shortened: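 Sprague Dawley rats (150-200 g) received compound dissolved in 0.2 M HCl (5% DMSO overall) at the desired dose, by oral gavage or tail-vein i.v. injection. Animals were watched for early toxicity signs every minute (i.v.) or every 15 min (oral).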

[3] = tested on: Sprague Dawley rats; assay: Palatability (no-choice) trial, peanut butter bait; type: in vivo, rat (Sprague Dawley); details: po, 1% w/w toxicant in peanut butter bait
From the text: In the palatability trials, Sprague Dawley rats (ca. 250 g) were presented with 1% w/w compound (n=6) or 0.5% w/w compound (n=5) in a peanut butter bait, following 3 days ‘pre-baiting’ with a peanut butter formulation free of toxicant.

[4] = tested on: Sprague Dawley rats; assay: In vivo lethality, intravenous injection via the tail; set-up: species or system rat (Sprague Dawley); details: rat
Experimental: Sprague Dawley rats (150-200 g) were used to appraise the rodenticidal activity of the compounds put forward for in vivo evaluation. Briefly, prior to administration the compounds were dissolved in 0.2 M hydrochloric acid (5% DMSO overall), to the desired dose, and without delay either injected intravenously, via the tail, or orally gavaged. All treated animals were housed in a quiet room and monitored every minute (i.v) or every 15 min (oral) to verify early signs of toxicity.

[5] = Table 1, read-out: Vasoconstriction: maximum contractile effect as a % of 90 mM KCl contraction
[6] = n = 6, 3 male and 3 female rats, Table 12, read-out: No of deaths (converted)
[7] = n = 6, 3 male and 3 female rats, Table 11, read-out: No of deaths (converted)
[8] = Table 7, compounds of formula (V)

Structure (SMILES) | Emax [1, 5] [%] | Vasoconstriction: maximum contractile effect as a % of 90 mM KCl contraction ([1]; Table 4, pre-cleavage, n = 3) [%] | melting point [°C] | Time to Death (min) ([2]; 20 mg/Kg) | Onset of Symptoms ([2]; 20 mg/Kg) [min] | In vivo lethality (oral) ([2]; 40 mg/Kg, n = 2) | also measured
CCCC(=O)OCN1C(=O)C2C3C=C(C(O)(c4ccccc4)c4ccccn4)C(C3=C(c3ccccc3)c3ccccn3)C2C1=O (stereo not drawn) [Compound 9, N-Butanoyloxymethyl-5-(α-hydroxy-α-2-pyridylbenzyl)-7-(α-2-pyridylbenzylidene)-5-norbornene-2,3-dicarboximide] | 86 | 86 | 68 to 79 | – | – | – | –
COc1ccccc1C(=O)OCN1C(=O)C2C3C=C(C(O)(c4ccccc4)c4ccccn4)C(C3=C(c3ccccc3)c3ccccn3)C2C1=O (stereo not drawn) [Compound 13, 5-(α-Hydroxy-α-2-pyridylbenzyl)-N-o-methoxybenzoyloxymethyl-7-(α-2-pyridylbenzylidene)-5-norbornene-2,3-dicarboximide] | 90 | 90 | 83 to 88 | – | – | – | –
CCOc1ccc(C=CC(=O)NCCN2C(=O)C3C4C=C(C(O)(c5ccccc5)c5ccccn5)C(C4=C(c4ccccc4)c4ccccn4)C3C2=O)cc1 (stereo not drawn) [Compound 345, N-[2′-(4″-Ethoxycinnamamido)ethyl]-5-(α-hydroxy-α-2-pyridylbenzyl)-7-(α-2-pyridylbenzylidene)-5-norbornene-2,3-dicarboximide] | – | 0 | – | 65^d min | 15 | yes^h,i | Emax ([1]; Table 2, read-out: Vasoconstriction: maximum contractile effect as a % of 90 mM KCl contraction): 0%; In vivo lethality (oral) ([2]; 20 mg/Kg, n = 2): yes^h,i; mortality at 1 % [3, 6]: 33.3%
O=C(C=Cc1ccc([N+](=O)[O-])cc1)OCCN1C(=O)C2C3C=C(C(O)(c4ccccc4)c4ccccn4)C(C3=C(c3ccccc3)c3ccccn3)C2C1=O (stereo not drawn) [Compound 130, 5-(α-Hydroxy-α-2-pyridylbenzyl)-N-[2′-(4″-nitrocinnamoyloxy)ethyl]-7-(α-2-pyridylbenzylidene)-5-norbornene-2,3-dicarboximide] | 20 | – | 105 to 110 | – | – | – | –
CC(C)c1ccc(C=CC(=O)OCCN2C(=O)C3C4C=C(C(O)(c5ccccc5)c5ccccn5)C(C4=C(c4ccccc4)c4ccccn4)C3C2=O)cc1 (stereo not drawn) [Compound 347, 5-(α-Hydroxy-α-2-pyridylbenzyl)-N-[2′-(4″-isopropylcinnamoyloxy)ethyl]-7-(α-2-pyridylbenzylidene)-5-norbornene-2,3-dicarboximide] | 0 | 0 | – | not lethal | 20 | yes^h | mortality at 1 % [3, 6]: 50%
O=C(CCc1ccccc1)OCN1C(=O)C2C3C=C(C(O)(c4ccccc4)c4ccccn4)C(C3=C(c3ccccc3)c3ccccn3)C2C1=O (stereo not drawn) [Compound 18, N-Dihydrocinnamoyloxymethyl-5-(α-hydroxy-α-2-pyridylbenzyl)-7-(α-2-pyridylbenzylidene)-5-norbornene-2,3-dicarboximide] | 13 | 13 | 89 to 94 | – | – | – | –
O=C(Cc1ccccc1)OCN1C(=O)C2C3C=C(C(O)(c4ccccc4)c4ccccn4)C(C3=C(c3ccccc3)c3ccccn3)C2C1=O (stereo not drawn) [Compound 16, 5-(α-Hydroxy-α-2-pyridylbenzyl)-N-phenylacetyloxymethyl-7-(α-2-pyridylbenzylidene)-5-norbornene-2,3-dicarboximide] | 15 | 15 | – | 90^d min | 15 | yes^h,i | In vivo lethality (i.v.) ([4]; 20 mg/Kg, n = 2): yes^f; In vivo lethality (oral) ([2]; 20 mg/Kg, n = 2): yes^h,i; mortality at 1 % [3, 7]: 83.3%
O=C1C2C3C=C(C(O)(c4ccccc4)c4ccccn4)C(C3=C(c3ccccc3)c3ccccn3)C2C(=O)N1CCCO (stereo not drawn) [Compound 104, N-3′-Hydroxypropyl-5-(α-hydroxy-α-2-pyridylbenzyl)-7-(α-2-pyridylbenzylidene)-5-norbornene-2,3-dicarboximide] | – | – | – | – | – | – | Vasoconstriction: maximum contractile effect as a % of 90 mM KCl contraction [1, 8]: ≧132%; Vasoconstriction: maximum contractile effect as a % of 90 mM KCl contraction ([1]; n = 3, Table 8): ≧132%; In vivo lethality (i.v.) ([4]; 20 mg/Kg, n = 3, Table 8): yes^b; In vivo lethality (oral) ([2]; 40 mg/Kg, n = 3, Table 8): yes^c
O=C(C=Cc1ccc(OC(F)(F)F)cc1)OCCN1C(=O)C2C3C=C(C(O)(c4ccccc4)c4ccccn4)C(C3=C(c3ccccc3)c3ccccn3)C2C1=O (stereo not drawn) [Compound 127, 5-(α-Hydroxy-α-2-pyridylbenzyl)-7-(α-2-pyridylbenzylidene)-N-[2′-(4″-trifluoromethoxycinnamoyloxy)ethyl]-5-norbornene-2,3-dicarboximide] | 0 | 0 | 100 to 105 | – | – | – | –
COc1ccccc1C=CC(=O)OCCN1C(=O)C2C3C=C(C(O)(c4ccccc4)c4ccccn4)C(C3=C(c3ccccc3)c3ccccn3)C2C1=O (stereo not drawn) [Compound 124, 5-(α-Hydroxy-α-2-pyridylbenzyl)-N-[2′-(2″-methoxycinnamoyloxy)ethyl]-7-(α-2-pyridylbenzylidene)-5-norbornene-2,3-dicarboximide] | 23 | – | 101 to 108 | – | – | – | –
COc1cc(C=CC(=O)OCCN2C(=O)C3C4C=C(C(O)(c5ccccc5)c5ccccn5)C(C4=C(c4ccccc4)c4ccccn4)C3C2=O)cc(OC)c1OC (stereo not drawn) [Compound 133, 5-(α-Hydroxy-α-2-pyridylbenzyl)-7-(α-2-pyridylbenzylidene)-N-[2′-(3″,4″,5″-trimethoxycinnamoyloxy)ethyl]-5-norbornene-2,3-dicarboximide] | 30 | – | 109 to 113 | – | – | – | –
CCCCCCCC(=O)OCN1C(=O)C2C3C=C(C(O)(c4ccccc4)c4ccccn4)C(C3=C(c3ccccc3)c3ccccn3)C2C1=O (stereo not drawn) [Compound 10, 5-(α-Hydroxy-α-2-pyridylbenzyl)-N-octanoyloxymethyl-7-(α-2-pyridylbenzylidene)-5-norbornene-2,3-dicarboximide] | 0 | 0 | – | not lethal | 15 | yes^h | In vivo lethality (i.v.) ([4]; 20 mg/Kg, n = 2): yes^f; mortality at 1 % [3, 7]: 100%
O=C1NC(=O)C2C3C(C(O)(c4ccccc4)c4ccccn4)=CC(C3=C(c3ccccc3)c3ccccn3)C12 (stereo not drawn) [endo-NRB, 5-(α-Hydroxy-α-2-pyridylbenzyl)-7-(α-2-pyridylbenzylidene)-5-norbornene-2,3-dicarboximide, reference compound] | – | 132 | – | 35^d min | 5 | yes^h,i | Vasoconstriction: maximum contractile effect as a % of 90 mM KCl contraction ([1]; n = 3, Table 8): 132%; Vasoconstriction: maximum contractile effect as a % of 90 mM KCl contraction ([1]; n = 3, pre-cleavage, Table 6): 132%; In vivo lethality (i.v.) ([4]; 10 mg/Kg, n = 2): yes^f,g; In vivo lethality (i.v.) ([4]; 10 mg/Kg, n = 2, Table 6): yes^e,f; In vivo lethality (i.v.) ([4]; 20 mg/Kg, n = 2): yes^f,g; In vivo lethality (i.v.) ([4]; 20 mg/Kg, n = 2, Table 6): yes^e,f; In vivo lethality (i.v.) ([4]; 20 mg/Kg, n = 3, Table 8): yes^b; In vivo lethality (oral) ([2]; 20 mg/Kg, n = 2): yes^h,i; In vivo lethality (oral) ([2]; 20 mg/Kg, n = 2, Table 6): yes^g,h; In vivo lethality (oral) ([2]; 20 mg/Kg, n = 3, Table 8): yes^c,d; In vivo lethality (oral) ([2]; 40 mg/Kg, n = 2, Table 6): yes^g,h; In vivo lethality (oral) ([2]; 40 mg/Kg, n = 3, Table 8): yes^c,d; mortality at 1 % [3, 7]: 66.7%; mortality at 1 % [3, 6]: 50%; mortality at 1 % ([3]; n = 6, male rats only, Table 10, read-out: No of deaths (converted)): 50%
NCc1ccc(C(=O)OCCN2C(=O)C3C4C=C(C(O)(c5ccccc5)c5ccccn5)C(C4=C(c4ccccc4)c4ccccn4)C3C2=O)cc1.O=C(O)C(F)(F)F (stereo not drawn) [Compound 342, N-[2′-(4-Aminomethylbenzoyloxy)ethyl]-5-(α-hydroxy-α-2-pyridylbenzyl)-7-(α-2-pyridylbenzylidene)-5-norbornene-2,3-dicarboximide trifluoroacetate] | 136 | 136 | – | – | – | yes^h | mortality at 1 % [3, 7]: 66.7%
O=C1C2C3C=C(C(O)(c4ccccc4)c4ccccn4)C(C3=C(c3ccccc3)c3ccccn3)C2C(=O)N1CCO (stereo not drawn) [Compound 102, N-2′-Hydroxyethyl-5-(α-hydroxy-α-2-pyridylbenzyl)-7-(α-2-pyridylbenzylidene)-5-norbornene-2,3-dicarboximide] | – | – | – | – | – | – | Vasoconstriction: maximum contractile effect as a % of 90 mM KCl contraction [1, 8]: ≧132%; Vasoconstriction: maximum contractile effect as a % of 90 mM KCl contraction ([1]; n = 3, Table 8): ≧132%; In vivo lethality (i.v.) ([4]; 20 mg/Kg, n = 3, Table 8): yes^b; In vivo lethality (oral) ([2]; 20 mg/Kg, n = 3, Table 8): yes^c,d; In vivo lethality (oral) ([2]; 40 mg/Kg, n = 3, Table 8): yes^c,d
